Several values for one entry are separate records, joined by “and”; a condition that tells them apart may be missing. Identical values can stand only once.
Experiments:
Format in all cases: cell-based
[1] = system: normal human dermal fibroblasts (NHDFs); experiment: Neosynthesis of total GAGs by NHDFs, [3H]-glucosamine incorporation; conditions: for % Control / Mean (cpm) / [3H]-glucosamine (cpm): total GAGs, NHDFs; for [3H]-glucosamine (cpm): single replicates; for effect on the neosynthesis of the total GAGs by the NHDFs (in words): tested at 10 and 100 μM
Protocol: (§1) The effects of the compounds on the neosynthesis of total and sulfated glycosaminoglycans (GAGs) were studied on two cell models, normal human epidermal keratinocytes (NHEKs) and normal human dermal fibroblasts (NHDFs). The effects of these compounds were evaluated by measuring: • the incorporation of [3H]-glucosamine into the total GAGs neosynthesized by NHEKs and by NHDFs, • the incorporation of [35S]-sulfate into the sulfated GAGs neosynthesized by NHEKs and by NHDFs.
(§2) The fibroblasts were seeded into wells and cultured in culture medium for 24 hours. The medium was then replaced with culture medium containing or not containing (controt) the compounds to be tested or the reference (TGF-β at 10 ng/ml), then the cells were incubated for 72 hours with the addition of the [35S]-sulfate radioactive label (sulfated GAGs) or of the [3H]-glucosamine radioactive label (total GAGs) for the final 24 hours of incubation.
(§3) At the end of the incubation, the glycosaminoglycans were extracted from the cells with a chaotropic buffer. The GAGs were then purified by ion exchange chromatography: adsorption of the anionic molecules on Q-Sepharose beads and desorption of the molecules of low or medium anionic nature, with a suitable solution.
(§4) The radioactivity incorporated into the molecules left on the support (GAGs, predominantly) was measured by liquid scintillation.
(§5) All the experimental conditions were performed in n=3.
(§6) The inter-group comparisons were performed using Student's non-paired two-sided t-test. The statistical analyses can be interpreted if n≥5; however, for n<5, the data calculated are provided only by way of indication.

[2] = system: normal human dermal fibroblasts (NHDFs); experiment: Neosynthesis of sulfated GAGs by NHDFs, [35S]-sulfate incorporation; conditions: for % Control / Mean (cpm) / [35S]-Sulfate (cpm): sulfated GAGs, NHDFs; for [35S]-Sulfate (cpm): single replicates
Protocol: as §1, §2, §3, §4, §5, §6

[3] = system: normal human epidermal keratinocytes (NHEKs); experiment: Neosynthesis of total GAGs by NHEKs, [3H]-glucosamine incorporation; conditions: for % Control / Mean (cpm) / [3H]-glucosamine (cpm): total GAGs, NHEKs; for [3H]-glucosamine (cpm): single replicates
Protocol: as §1
(§7) The keratinocytes were seeded into wells and cultured in culture medium for 24 hours. The medium was then replaced with culture medium containing or not containing (control) the compounds to be tested or the reference (4-nitrophenyl β-D-xylopyranoside at 300 μM), then the cells were incubated for 72 hours with the addition of the [3H]-glucosamine radioactive label (total GAGs) or of the [35S]-sulfate radioactive label (sulfated GAGs) for the final 24 hours of incubation.
as §3, §4, §5, §6

[4] = system: normal human epidermal keratinocytes (NHEKs); experiment: Neosynthesis of sulfated GAGs by NHEKs, [35S]-sulfate incorporation; conditions: for % Control / Mean (cpm) / [35S]-Sulfate (cpm): sulfated GAGs, NHEKs; for [35S]-Sulfate (cpm): single replicates
Protocol: as §1, §7, §3, §4, §5, §6

Molecule: Oc1ccc(/C=C/c2cc(O)cc(O[C@@H]3OC[C@@H](O)[C@H](O)[C@H]3O)c2)cc1 [Compound 1a, 3-hydroxy-5-[(E)-2-(4-hydroxyphenyl)ethenyl]phenyl β-D-xylopyranoside]
- % Control ([1]; campaign 2, 10 μM): 108%
- Mean (cpm) ([1]; campaign 2, 10 μM): 1684 cpm
- [3H]-glucosamine (cpm) ([1]; campaign 2, 10 μM): 1622 cpm and 1750 cpm and 1680 cpm
- % Control ([1]; campaign 2, 100 μM): 90%
- Mean (cpm) ([1]; campaign 2, 100 μM): 1408 cpm
- [3H]-glucosamine (cpm) ([1]; campaign 2, 100 μM): 1422 cpm and 1331 cpm and 1470 cpm
- % Control ([2]; campaign 1, 10 μM): 211%
- Mean (cpm) ([2]; campaign 1, 10 μM): 3472 cpm
- [35S]-Sulfate (cpm) ([2]; campaign 1, 10 μM): 3286 cpm and 3573 cpm and 3557 cpm
- % Control ([2]; campaign 1, 100 μM): 537%
- Mean (cpm) ([2]; campaign 1, 100 μM): 8844 cpm
- [35S]-Sulfate (cpm) ([2]; campaign 1, 100 μM): 8753 cpm and 8534 cpm and 9244 cpm
- % Control ([2]; campaign 2, 10 μM): 221%
- Mean (cpm) ([2]; campaign 2, 10 μM): 1254 cpm
- [35S]-Sulfate (cpm) ([2]; campaign 2, 10 μM): 1274 cpm and 1307 cpm and 1180 cpm
- % Control ([2]; campaign 2, 100 μM): 411%
- Mean (cpm) ([2]; campaign 2, 100 μM): 2328 cpm
- [35S]-Sulfate (cpm) ([2]; campaign 2, 100 μM): 2237 cpm and 2369 cpm and 2379 cpm
- % Control ([3]; campaign 1, 10 μM): 117%
- Mean (cpm) ([3]; campaign 1, 10 μM): 15165 cpm
- [3H]-glucosamine (cpm) ([3]; campaign 1, 10 μM): 14440 cpm and 15184 cpm and 15871 cpm
- % Control ([3]; campaign 1, 100 μM): 235%
- Mean (cpm) ([3]; campaign 1, 100 μM): 30380 cpm
- [3H]-glucosamine (cpm) ([3]; campaign 1, 100 μM): 30079 cpm and 29149 cpm and 31911 cpm
- % Control ([3]; campaign 2, 10 μM): 134%
- Mean (cpm) ([3]; campaign 2, 10 μM): 11405 cpm
- [3H]-glucosamine (cpm) ([3]; campaign 2, 10 μM): 10145 cpm and 11857 cpm and 12213 cpm
- % Control ([3]; campaign 2, 100 μM): 199%
- Mean (cpm) ([3]; campaign 2, 100 μM): 16980 cpm
- [3H]-glucosamine (cpm) ([3]; campaign 2, 100 μM): 16745 cpm and 16574 cpm and 17621 cpm
- % Control ([4]; campaign 1, 10 μM): 137%
- Mean (cpm) ([4]; campaign 1, 10 μM): 9319 cpm
- [35S]-Sulfate (cpm) ([4]; campaign 1, 10 μM): 9304 cpm and 9522 cpm and 9131 cpm
- % Control ([4]; campaign 1, 100 μM): 839%
- Mean (cpm) ([4]; campaign 1, 100 μM): 56923 cpm
- [35S]-Sulfate (cpm) ([4]; campaign 1, 100 μM): 53801 cpm and 56728 cpm and 60239 cpm
- % Control ([4]; campaign 2, 10 μM): 217%
- Mean (cpm) ([4]; campaign 2, 10 μM): 11501 cpm
- [35S]-Sulfate (cpm) ([4]; campaign 2, 10 μM): 10206 cpm and 12532 cpm and 11765 cpm
- % Control ([4]; campaign 2, 100 μM): 973%
- Mean (cpm) ([4]; campaign 2, 100 μM): 51673 cpm
- [35S]-Sulfate (cpm) ([4]; campaign 2, 100 μM): 46568 cpm and 54125 cpm and 54327 cpm

Molecule: OC[C@H]1O[C@@H](Oc2cc(O)cc(/C=C/c3ccc(O)cc3)c2)[C@H](O)[C@@H](O)[C@@H]1O [Polydatin]
- effect on the neosynthesis of the total GAGs by the NHDFs (in words) [1]: overall inhibited
- % Control ([2]; campaign 1, 10 μM): 96%
- Mean (cpm) ([2]; campaign 1, 10 μM): 1573 cpm
- [35S]-Sulfate (cpm) ([2]; campaign 1, 10 μM): 1523 cpm and 1479 cpm and 1718 cpm
- % Control ([2]; campaign 1, 100 μM): 78%
- Mean (cpm) ([2]; campaign 1, 100 μM): 1287 cpm
- [35S]-Sulfate (cpm) ([2]; campaign 1, 100 μM): 1290 cpm and 1317 cpm and 1255 cpm
- effect on the neosynthesis of the sulfated GAGs by the NHDFs (in words) ([2]; tested at 10 and 100 μM): overall inhibited
- effect on the neosynthesis of the total GAGs by the NHEKs (in words) ([3]; tested at 10 and 100 μM): did not modulate
- % Control ([3]; campaign 1, 10 μM): 102%
- Mean (cpm) ([3]; campaign 1, 10 μM): 13202 cpm
- [3H]-glucosamine (cpm) ([3]; campaign 1, 10 μM): 13405 cpm and 13192 cpm and 13010 cpm
- % Control ([3]; campaign 1, 100 μM): 90%
- Mean (cpm) ([3]; campaign 1, 100 μM): 11660 cpm
- [3H]-glucosamine (cpm) ([3]; campaign 1, 100 μM): 12222 cpm and 11510 cpm and 11248 cpm
- % Control ([4]; campaign 1, 10 μM): 100%
- Mean (cpm) ([4]; campaign 1, 10 μM): 6760 cpm
- [35S]-Sulfate (cpm) ([4]; campaign 1, 10 μM): 6316 cpm and 6800 cpm and 7164 cpm
- % Control ([4]; campaign 1, 100 μM): 119%
- Mean (cpm) ([4]; campaign 1, 100 μM): 8043 cpm
- [35S]-Sulfate (cpm) ([4]; campaign 1, 100 μM): 7007 cpm and 8365 cpm and 8756 cpm
- effect on the neosynthesis of the sulfated GAGs by the NHEKs (in words) ([4]; tested at 10 and 100 μM): did not modulate

Molecule: TGF-β: reference for the fibroblast assays, at 10 ng/ml
- % Control ([1]; campaign 2, 10 ng/ml): 331%
- Mean (cpm) ([1]; campaign 2, 10 ng/ml): 5167 cpm
- [3H]-glucosamine (cpm) ([1]; campaign 2, 10 ng/ml): 5999 cpm and 4173 cpm and 5328 cpm
- % Control ([2]; campaign 1, 10 ng/ml): 208%
- Mean (cpm) ([2]; campaign 1, 10 ng/ml): 3433 cpm
- [35S]-Sulfate (cpm) ([2]; campaign 1, 10 ng/ml): 3397 cpm and 3492 cpm and 3411 cpm
- % Control ([2]; campaign 2, 10 ng/ml): 257%
- Mean (cpm) ([2]; campaign 2, 10 ng/ml): 1452 cpm
- [35S]-Sulfate (cpm) ([2]; campaign 2, 10 ng/ml): 1471 cpm and 1482 cpm and 1403 cpm

Molecule: Oc1cc(O)cc(/C=C/c2ccc(O[C@@H]3OC[C@@H](O)[C@H](O)[C@H]3O)cc2)c1 [Compound 2a, 4-[(E)-2-(3,5-dihydroxy-phenyl)ethenyl]phenyl β-D-xylopyranoside]
- effect on the neosynthesis of the total GAGs by the NHDFs (in words) [1]: stimulated in a concentration-dependent manner
- % Control ([1]; campaign 2, 10 μM): 104%
- Mean (cpm) ([1]; campaign 2, 10 μM): 1624 cpm
- [3H]-glucosamine (cpm) ([1]; campaign 2, 10 μM): 1758 cpm and 1479 cpm and 1636 cpm
- % Control ([1]; campaign 2, 100 μM): 126%
- Mean (cpm) ([1]; campaign 2, 100 μM): 1973 cpm
- [3H]-glucosamine (cpm) ([1]; campaign 2, 100 μM): 1958 cpm and 1959 cpm and 2003 cpm
- % Control ([2]; campaign 2, 10 μM): 141%
- Mean (cpm) ([2]; campaign 2, 10 μM): 795 cpm
- [35S]-Sulfate (cpm) ([2]; campaign 2, 10 μM): 765 cpm and 835 cpm and 786 cpm
- % Control ([2]; campaign 2, 100 μM): 533%
- Mean (cpm) ([2]; campaign 2, 100 μM): 3015 cpm
- [35S]-Sulfate (cpm) ([2]; campaign 2, 100 μM): 2858 cpm and 3230 cpm and 2958 cpm
- effect on the neosynthesis of the total GAGs by the NHEKs (in words) ([3]; tested at 1 and 10 μM): stimulated in a concentration-dependent manner
- % Control ([3]; campaign 2, 1 μM): 120%
- Mean (cpm) ([3]; campaign 2, 1 μM): 10215 cpm
- [3H]-glucosamine (cpm) ([3]; campaign 2, 1 μM): 9472 cpm and 10133 cpm and 11041 cpm
- % Control ([3]; campaign 2, 10 μM): 151%
- Mean (cpm) ([3]; campaign 2, 10 μM): 12844 cpm
- [3H]-glucosamine (cpm) ([3]; campaign 2, 10 μM): 11913 cpm and 12452 cpm and 14167 cpm
- % Control ([4]; campaign 2, 1 μM): 114%
- Mean (cpm) ([4]; campaign 2, 1 μM): 6073 cpm
- [35S]-Sulfate (cpm) ([4]; campaign 2, 1 μM): 5974 cpm and 6365 cpm and 5879 cpm
- % Control ([4]; campaign 2, 10 μM): 240%
- Mean (cpm) ([4]; campaign 2, 10 μM): 12748 cpm
- [35S]-Sulfate (cpm) ([4]; campaign 2, 10 μM): 11209 cpm and 13332 cpm and 13703 cpm
- effect on the neosynthesis of the sulfated GAGs by the NHEKs (in words) ([4]; tested at 1 and 10 μM): stimulated in a concentration-dependent manner

Molecule: O=[N+]([O-])c1ccc(O[C@@H]2OC[C@@H](O)[C@H](O)[C@H]2O)cc1 [4-Nitrophenyl β-D-xylopyranoside, 4-nitrophenyl β-D-xylopyranoside]
- % Control ([3]; campaign 1, 300 μM): 206%
- Mean (cpm) ([3]; campaign 1, 300 μM): 26611 cpm
- [3H]-glucosamine (cpm) ([3]; campaign 1, 300 μM): 26835 cpm and 26438 cpm and 26560 cpm
- % Control ([3]; campaign 2, 300 μM): 243%
- Mean (cpm) ([3]; campaign 2, 300 μM): 20694 cpm
- [3H]-glucosamine (cpm) ([3]; campaign 2, 300 μM): 22239 cpm and 20953 cpm and 18891 cpm
- % Control ([4]; campaign 1, 300 μM): 922%
- Mean (cpm) ([4]; campaign 1, 300 μM): 62566 cpm
- [35S]-Sulfate (cpm) ([4]; campaign 1, 300 μM): 60267 cpm and 63396 cpm and 64036 cpm
- % Control ([4]; campaign 2, 300 μM): 1029%
- Mean (cpm) ([4]; campaign 2, 300 μM): 54615 cpm
- [35S]-Sulfate (cpm) ([4]; campaign 2, 300 μM, listed as 4-Nitrophenyl B-D-xylopyranoside): 54440 cpm and 52841 cpm and 56564 cpm
